Test results as given in patent EP0975351B1, “TREATMENT OF MULTIPLE SCLEROSIS THROUGH INGESTION OF COPOLYMER-1” (YEDA RESEARCH AND DEVELOPMENT CO. LTD., priority 1997, dated 1998).

Assays:
EAE [1] = assay: Suppression of EAE in rats by oral administration; format: in vivo, Lewis rats
Procedure: (§1) Rats were immunized with 25 µg of GPBP emulsified 1:1 in CFA containing 4 mg/ml. H37Ra. The emulsion at a total volume of 0.1 ml. was injected into the two hindfoot pads.
(§2) Animals were examined daily from day 10 post induction for signs of disease. EAE was scored as follows: 0-no disease, 1-limp tail, 2-hind limb paralysis, 3-paralysis of all four limbs, 4-moribund condition, 5-death.
(§3) Rats were fed with 1 mg GPBP or glatiramer acetate dissolved in PBS by gastric intubation using a sterile feeding tube (Uno Plast, Denmark). Rats were fed 5 times (total dose of 5 mg) before disease induction at intervals of 2-3 days. EAE was induced two days after the last feeding. Control mice and rats were mock fed with PBS.

EAE [2] = assay: Induction of EAE in Rhesus monkeys, oral enteric-coated capsules, clinical scoring (Example 3); format: in vivo
Procedure: Glatiramer acetate was provided by Teva Pharmaceutical Industries Ltd. in an enteric-coated hard gelatin capsule comprising two dosage levels: 1 mg of glatiramer acetate and 20 mg of glatiramer acetate. Each dosage level was formulated using mannitol, and coated with Eudragit L30D55. Placebo or control capsules comprised capsules containing 5 mg of sugar.
3 Rhesus monkeys were treated as follows: One monkey served as control and was fed with placebo capsules (containing 5mg glucose only). The second and third monkeys were fed with glatiramer acetate containing capsules at a dose of 1mg/feeding and 20mg/feeding, respectively. Animals were fed every other day for a total of 10 feedings: 5 times prior to disease induction (immunization on day 0) and then 5 times after immunization.
Disease was induced on day 0 by an intradermal injection of 8mg bovine - MBP and 3 mg H37Ra M. tuberculosis in FCA into the hind footpads, total injected volume between 0.1 and 0.15 ml per footpad. The animals were followed for clinical manifestations of EAE, a variety of serum and CSF immunological markers and spinal cord and cranial MRI's.

[3] = system: spleen cell cultures derived from mice; assay: Cytokine secretion assay of spleen cells from fed mice (ELISA); format: cell-based; conditions: versus PBS fed control
Procedure: Induction and Assessment of EAE - Mice were injected with 200 µg GPBP emulsified in an equal volume of complete Freund's adjuvant (CFA) containing 4 mg/ml mycobacterium tuberculosis (H37Ra) (Difco Lab, Detroit, Mich.). The emulsion at a total volume of 0.1 ml was injected into all four footpads. Immediately after and 24 hours later, pertussis toxin (250ng/mouse) (Sigma) was injected intravenously.
Induction of Oral Tolerance - Mice were fed with 250 µg GPBP or glatiramer acetate dissolved in phosphate buffered saline (PBS) on days -7, -5, -3, 0, 2, 4 and 6 by gastric intubation with an 18-gauge stainless steel feeding needle (Thomas). EAE was induced on day 0.
Cytokine Secretion Assay - Spleens were removed 10-11 days after EAE induction and cells of 3 mice from each group were pooled. Cells (5x10^6/ml) were cultured in duplicates in 24 well plate in RPMI 1640 supplemented with 10% FCS (Fetal Calf Serum) in the presence or absence of antigen (GPBP 100 Fg/ml). Supematants were harvested after 24-40 hr of culture. Quantitative ELISA for IL-2, IFN-γ, IL-4, IL-6 and IL-10 were performed using paired mAbs specific for the corresponding cytokines (Pharmingen, La Jolla, CA) according to the manufacturer's instructions.

EAE [4] = assay: Dose response study of oral Copolymer-1 in rats (EAE); format: in vivo; conditions: for Mean Score ±SD: PBS control 1.32±0.64; for Incidence: PBS control 10/11; for Mean Onset: PBS control 13.1; for Suppression* (%): calculated by mean score
Procedure: as §1, §2, §3
Rats were fed 5 times with 0.5, 1 or 2 mg glatiramer acetate according to the established protocol (see Materials and Methods, above) and then challenged for EAE induction.

EAE [5] = assay: EAE in Rhesus monkeys, enteric-coated versus cracked coating capsules (Example 4); format: in vivo; conditions: for protection from the disease: Fig. 10
Procedure: Six monkeys were treated and subsequent analyses performed substantially according to the protocol described for Example 3 hereinabove.
Control placebo-fed animal 18746 was fed with capsules containing glucose. Animal 18586 was fed with 1 mg glatiramer acetate in capsules with cracked […]. Animal 18586 was fed with 1 mg glatiramer acetate in capsules with cracked enteric coating. Animal 18639 was fed with 20 mg glatiramer acetate in capsules with cracked enteric coating. […] Animal 18962 was fed with 20 mg glatiramer acetate in intact enteric coated capsules.
The schedule of feeding, disease induction and follow-up were substantially the same as those of Example 3 described hereinabove.

[6] = system: MBP-specific T suppressor Inducer factor; assay: Assay for MBP-specific T suppressor inducer factor in plasma (3C9 antibody); format: in vivo, Rhesus Monkeys; conditions: for MBP-specific T suppressor Inducer factor: plasma 1:20 dilution; for anti-Tsfi (3C9 Ab): plasma material bound to MBP (2.5µg)
Description: The analysis, for MBP-specific Tsfi in the plasma of the three monkeys in this Example are seen in Tables 5 and 6 below. None of the animals produced MBP-specific Tsfi until day +13 following EAE induction with MBP. […] Glatiramer acetate fed animals 18497 and 18498 consistently produced significant levels of Tsfi from day +13 until day +41 shortly before termination.
Recombinant human TGF-beta reacted with the anti-TGF-beta, but not 3C9 antibody. Table 5: Assay for MBP-specific T suppressor Inducer factora

[7] = capsules with cracked enteric coating, 1 mg (animal 18586) and 20 mg (animal 18639)
[8] = animal 18497, 1mg/feeding then 20mg capsules after day 33, day +41
[9] = animal 18497, 1mg/feeding, day +6
[10] = animal 18497, 1mg/feeding, day +13
[11] = animal 18497, 1mg/feeding, day +27
[12] = animal 18498, 20mg/feeding, day +6
[13] = animal 18498, 20mg/feeding, day +13
[14] = animal 18498, 20mg/feeding, day +27
[15] = animal 18498, 20mg/feeding, day +41

Substance: glatiramer acetate
- Mean Onset (EAE [1]; Lewis rats fed 1 mg 5 times before EAE induction, PBS control 11.9): 12.6 days
- Mean Maximal Score±SD (EAE [1]; Lewis rats fed 1 mg 5 times before EAE induction, score 0-5, PBS control 1.8±0.5): 0.78±0.45
- inhibition of incidence of EAE (EAE [1]; compared to PBS fed rats): 54%
- inhibition of severity of EAE (EAE [1]; compared to PBS fed rats): 57%
- day of first (minimal) symptoms (EAE [2]; animal 18497, 1mg/feeding, 10 feedings): 25 days
- time until clinical signs dropped to zero (EAE [2]; animal 18497, after day 33 fed 20mg capsules 5 times on alternate days, remained zero until day 60): ≤ 3 days
- clinical symptoms (EAE [2]; animal 18498, 20mg/feeding, 10 feedings, 60 day observation period, placebo animal score 4+ , sacrificed day 28): did not show any significant clinical symptoms
- IFN-γ produced in response to GPBP stimulation [3]: lower than in control groups
- IL-2 produced in response to GPBP stimulation [3]: lower than in control groups
- Mean Score ±SD (EAE [4]; rats fed 5 times 0.5 mg): 0.95±0.57
- Incidence (EAE [4]; rats fed 5 times 0.5 mg): 9/11
- Mean Onset (EAE [4]; rats fed 5 times 0.5 mg): 13.5
- Suppression* (%) (EAE [4]; rats fed 5 times 0.5 mg): 28%
- Mean Score ±SD (EAE [4]; rats fed 5 times 1 mg): 0.64±0.50
- Incidence (EAE [4]; rats fed 5 times 1 mg): 7/11
- Mean Onset (EAE [4]; rats fed 5 times 1 mg): 15.1
- Suppression* (%) (EAE [4]; rats fed 5 times 1 mg): 51%
- Mean Score ±SD (EAE [4]; rats fed 5 times 2 mg): 0.91±0.70
- Incidence (EAE [4]; rats fed 5 times 2 mg): 8/11
- Mean Onset (EAE [4]; rats fed 5 times 2 mg): 13.1
- Suppression* (%) (EAE [4]; rats fed 5 times 2 mg): 31%
- time to death from disease manifestations (EAE [5]; [7]): 2 to 3 days
- protection from the disease (EAE [5]; [7]): not protected from the disease
- protection from the disease (EAE [5]; intact enteric coated capsules, 1 mg, 10 mg, 20 mg (animals 18724, 18810, 18962)): fully protected from the disease
- signs of EAE (EAE [5]; intact enteric coated capsules, 1 mg, 10 mg, 20 mg, until day 60 when sacrificed): developed no signs of EAE until day 60
- MBP-specific T suppressor Inducer factor ([6]; animal 18497, 1mg/feeding then 20mg capsules after day 33, day +34): .66 OD at 405nm
- MBP-specific T suppressor Inducer factor [6, 8]: .76 OD at 405nm
- MBP-specific T suppressor Inducer factor [6, 9]: none
- MBP-specific T suppressor Inducer factor [6, 10]: .60 OD at 405nm
- MBP-specific T suppressor Inducer factor ([6]; animal 18497, 1mg/feeding, day +20): .61 OD at 405nm
- MBP-specific T suppressor Inducer factor [6, 11]: .56 OD at 405nm
- MBP-specific T suppressor Inducer factor ([6]; animal 18497, 1mg/feeding, day -1): none
- MBP-specific T suppressor Inducer factor ([6]; animal 18497, 1mg/feeding, day -13): none
- MBP-specific T suppressor Inducer factor [6, 12]: none
- MBP-specific T suppressor Inducer factor [6, 13]: .32 OD at 405nm
- MBP-specific T suppressor Inducer factor ([6]; animal 18498, 20mg/feeding, day +20): .32 OD at 405nm
- MBP-specific T suppressor Inducer factor [6, 14]: .42 OD at 405nm
- MBP-specific T suppressor Inducer factor ([6]; animal 18498, 20mg/feeding, day +34): .40 OD at 405nm
- MBP-specific T suppressor Inducer factor [6, 15]: .40 OD at 405nm
- MBP-specific T suppressor Inducer factor ([6]; animal 18498, 20mg/feeding, day -1): none
- MBP-specific T suppressor Inducer factor ([6]; animal 18498, 20mg/feeding, day -13): none
- anti-Tsfi (3C9 Ab) [6, 8]: 0.76 OD405 nm
- anti-Tsfi (3C9 Ab) [6, 9]: none
- anti-Tsfi (3C9 Ab) [6, 10]: 0.60 OD405 nm
- anti-Tsfi (3C9 Ab) [6, 11]: 0.56 OD405 nm
- anti-Tsfi (3C9 Ab) [6, 12]: none
- anti-Tsfi (3C9 Ab) [6, 13]: 0.32 OD405 nm
- anti-Tsfi (3C9 Ab) [6, 14]: 0.42 OD405 nm
- anti-Tsfi (3C9 Ab) [6, 15]: 0.40 OD405 nm
